Measured values from US9593156B2 (priority 2012, dated 2017).
Where “and” joins values, the source holds several entries; their conditions need not be identical. Equal values may be shown once. Square brackets hold non-standard residues; d marks the D form. Primed or numbered codes have the meaning given here. Ends that are not written are not given here. PEG4′ = PEG spacer of 4 units in the linker; PEG8′ = PEG spacer of 8 units in the linker

Legend:
IGF-1 receptor [1] = molecular target: T1, IGF-1 receptor (Homo sapiens, UniProt P08069); assay: IGF-1 receptor phosphorylation assay in receptor transfected HEK293 cells; assay type: cell-based; design: expressed in transfected cells; host or cells: HEK293; details: Table 10; IGF-1 Receptor
T1 sequence (P08069 31-736 limits assumed): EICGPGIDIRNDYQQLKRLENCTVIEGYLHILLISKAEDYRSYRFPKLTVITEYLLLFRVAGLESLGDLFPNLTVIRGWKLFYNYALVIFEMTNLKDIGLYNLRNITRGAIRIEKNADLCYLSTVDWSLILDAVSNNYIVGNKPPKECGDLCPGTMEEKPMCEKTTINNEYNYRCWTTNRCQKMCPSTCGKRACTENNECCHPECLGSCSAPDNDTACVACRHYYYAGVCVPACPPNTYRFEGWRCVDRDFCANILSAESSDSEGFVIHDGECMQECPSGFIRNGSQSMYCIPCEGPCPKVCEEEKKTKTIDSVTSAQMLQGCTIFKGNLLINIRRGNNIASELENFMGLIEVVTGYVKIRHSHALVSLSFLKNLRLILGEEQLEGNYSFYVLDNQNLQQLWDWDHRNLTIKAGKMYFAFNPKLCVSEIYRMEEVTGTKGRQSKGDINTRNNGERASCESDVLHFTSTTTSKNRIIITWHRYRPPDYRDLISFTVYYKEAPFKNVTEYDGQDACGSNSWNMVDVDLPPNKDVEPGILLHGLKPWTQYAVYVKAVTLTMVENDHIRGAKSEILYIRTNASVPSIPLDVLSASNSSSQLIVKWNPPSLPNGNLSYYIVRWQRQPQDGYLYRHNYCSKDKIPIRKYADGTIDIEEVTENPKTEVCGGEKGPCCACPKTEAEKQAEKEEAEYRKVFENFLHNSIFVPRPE
T1 sequence (P08069 741-1367 partner limits assumed): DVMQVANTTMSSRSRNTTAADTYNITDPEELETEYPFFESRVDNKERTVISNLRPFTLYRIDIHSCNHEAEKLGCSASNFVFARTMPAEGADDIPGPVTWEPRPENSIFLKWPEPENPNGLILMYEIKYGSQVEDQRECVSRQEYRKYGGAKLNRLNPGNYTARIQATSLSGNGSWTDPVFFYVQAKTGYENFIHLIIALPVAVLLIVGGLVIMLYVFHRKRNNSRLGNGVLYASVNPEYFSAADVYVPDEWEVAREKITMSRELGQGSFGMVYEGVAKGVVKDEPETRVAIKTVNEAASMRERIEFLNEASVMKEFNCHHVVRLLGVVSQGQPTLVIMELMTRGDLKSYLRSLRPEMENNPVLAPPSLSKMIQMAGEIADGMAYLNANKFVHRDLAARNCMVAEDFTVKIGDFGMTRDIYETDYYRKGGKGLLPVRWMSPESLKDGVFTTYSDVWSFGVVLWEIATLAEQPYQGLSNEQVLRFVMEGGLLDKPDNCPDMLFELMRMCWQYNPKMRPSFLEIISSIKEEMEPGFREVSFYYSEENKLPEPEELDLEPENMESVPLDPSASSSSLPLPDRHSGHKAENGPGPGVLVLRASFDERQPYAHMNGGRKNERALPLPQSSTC

insulin receptor [2] = molecular target: T2, insulin receptor (Homo sapiens, UniProt P06213); assay: Insulin receptor competition binding assay (scintillation proximity); design: expressed in transfected cells; plasma membrane fragments
IGF-1 receptor [3] = molecular target: T1, IGF-1 receptor; assay: IGF-1 receptor competition binding assay (scintillation proximity); design: expressed in transfected cells; plasma membrane fragments; details: Table 9; for Ratio: IGF-1 receptor versus insulin receptor
insulin receptor [4] = molecular target: T2, insulin receptor; assay: Insulin receptor phosphorylation assay in receptor transfected HEK293 cells; assay type: cell-based; design: expressed in transfected cells; host or cells: HEK293; details: Table 10, Insulin Receptor
[5] = blood glucose lowering in mice
[6] = molecular target: T3, type A insulin receptor (IR-A) (Homo sapiens, UniProt P06213); assay: Receptor kinase activity (phosphorylation) assay, type A insulin receptor; assay type: cell-based
T3 construct: expressed in transfected cells; host or cells: HEK293

[7] = molecular target: T4, type B insulin receptor (IR-B) (Homo sapiens, UniProt P06213); assay: Receptor kinase activity (phosphorylation) assay, type B insulin receptor; assay type: cell-based; details: Table 17
T4 construct: expressed in transfected cells; host or cells: HEK293

| Compound | % IGF (IGF-1 receptor [1]) | % insulin (in test) (insulin receptor [2]; Table 9, Insulin Receptor) | % IGF-1 (in test) (IGF-1 receptor [3]; IGF-1 Receptor) | Ratio (IGF-1 receptor [3]) | % Insulin (insulin receptor [4]; listed as IGF-1 A (H8 A9 N21) B(H5D10Y16L17) DPI A-COOH) | IC50 (insulin receptor [2]; IC50:) | % native insulin activity (0.6 nM) (insulin receptor [2]; Table 9, Insulin Receptor) | IC80 (IGF-1 receptor [3]; IGF-1 Receptor) | % Insulin (insulin receptor [4]) | duration of action [5] | % Insulin Activity IR-A ([6]; Table 12) | Phosphorylation (EC50) % IR-A ([6]; Table 17) | agonist character at the insulin receptor (type A) ([6]; result in words) | Phosphorylation (EC50) % IR-B [7] |
| --- | --- | --- | --- | --- | --- | --- | --- | --- | --- | --- | --- | --- | --- | --- |
| CC[C@H](C)[C@H](NC(=O)CN)C(=O)N[C@H](C(=O)N[C@@H](CC(=O)O)C(=O)N[C@@H](CCC(=O)O)C(=O)N[C@H]1CSSC[C@@H]2NC(=O)[C@H](CO)NC(=O)[C@H](C)NC(=O)[C@H](Cc3c[nH]cn3)NC(=O)[C@H](CSSC[C@H](NC(=O)[C@H](CC(C)C)NC(=O)[C@H](Cc3c[nH]cn3)NC(=O)[C@H](CCC(=O)O)NC(=O)[C@@H]3CCCN3C(=O)CN)C(=O)NCC(=O)N[C@@H](C)C(=O)N[C@@H](CC(=O)O)C(=O)N[C@@H](CC(C)C)C(=O)N[C@@H](C(C)C)C(=O)N[C@@H](CC(=O)O)C(=O)N[C@@H](C)C(=O)N[C@@H](CC(C)C)C(=O)N[C@@H](Cc3ccc(O)cc3)C(=O)N[C@@H](CC(C)C)C(=O)N[C@@H](C(C)C)C(=O)N[C@H](C(=O)NCC(=O)N[C@@H](CC(=O)O)C(=O)N[C@@H](CCCNC(=N)N)C(=O)NCC(=O)N[C@@H](Cc3ccccc3)C(=O)N[C@@H](Cc3ccc(O)cc3)C(N)=O)CSSC[C@@H](C(=O)N[C@@H](CC(N)=O)C(=O)O)NC(=O)[C@H](Cc3ccc(O)cc3)NC(=O)[C@H](CCSC)NC(=O)[C@H](CCC(=O)O)NC(=O)[C@H](CC(C)C)NC(=O)[C@H](CCCNC(=N)N)NC(=O)[C@H](CCCNC(=N)N)NC(=O)[C@H](CC(C)C)NC(=O)[C@H](CC(=O)O)NC2=O)NC1=O)C(C)C | 181.395% | 1576.7% and 1667.0% | 12.9% | 80.6 | 840% and 1080% | – | – | – | – | – | – | – | – | – |
| CC[C@H](C)[C@H](NC(=O)CN)C(=O)N[C@H](C(=O)N[C@@H](CC(=O)O)C(=O)N[C@@H](CCC(=O)O)C(=O)N[C@H]1CSSC[C@@H]2NC(=O)[C@H](CO)NC(=O)[C@H](CCCNC(=N)N)NC(=O)[C@H](Cc3ccccc3)NC(=O)[C@H](CSSC[C@H](NC(=O)[C@H](CC(C)C)NC(=O)[C@@H](NC(=O)[C@H](CCC(=O)O)NC(=O)[C@@H]3CCCN3C(=O)CN)[C@@H](C)O)C(=O)NCC(=O)N[C@@H](C)C(=O)N[C@@H](CCC(=O)O)C(=O)N[C@@H](CC(C)C)C(=O)N[C@@H](C(C)C)C(=O)N[C@@H](CC(=O)O)C(=O)N[C@@H](C)C(=O)N[C@@H](CC(C)C)C(=O)N[C@@H](Cc3ccc(O)cc3)C(=O)N[C@@H](CC(C)C)C(=O)N[C@@H](C(C)C)C(=O)N[C@H](C(=O)NCC(=O)N[C@@H](CC(=O)O)C(=O)N[C@@H](CCCNC(=N)N)C(=O)NCC(=O)N[C@@H](Cc3ccccc3)C(=O)N[C@@H](Cc3ccc(O)cc3)C(=O)N[C@@H](Cc3ccccc3)C(=O)N[C@@H](CC(N)=O)C(=O)N[C@@H](CCCCN)C(=O)N3CCC[C@H]3C(=O)N[C@H](C(N)=O)[C@@H](C)O)CSSC[C@@H](C(=O)N[C@@H](C)C(N)=O)NC(=O)[C@H](Cc3ccc(O)cc3)NC(=O)[C@H](CCSC)NC(=O)[C@H](CCC(=O)O)NC(=O)[C@H](CC(C)C)NC(=O)[C@H](CCCNC(=N)N)NC(=O)[C@H](CCCNC(=N)N)NC(=O)[C@H](CC(C)C)NC(=O)[C@H](CC(=O)O)NC2=O)NC1=O)C(C)C [IGF-1 A:B(E10Y16L17)] | 13% | 58.7% and 98.8% | 6.8% and 5.0% | 11.9 | – | 0.51 nM | 90.9% and 117.6% | 12.2 nM | 49.2% | – | – | – | – | – |
| C8-PEG20K B^1(H5,Y16,L17)25-PEG8-K-PEG4-A^1(N18,N21) (GPEHLCGAELVDALYLVCGDRGFY[PEG8′]K(PEG 20 kDa)[PEG4′]GIVDECCFRSCDLRRLENYCN; ends and bridges not checked) [#38] | – | – | – | – | – | – | – | – | – | 24 h | 14.8% | 14.8% | full agonist | 2.0% |
